We go through two compounds from US11911434B2, “Stable antibody-drug conjugate, preparation method therefor, and use thereof” (GENEQUANTUM HEALTHCARE (SUZHOU) CO., LTD., priority 2014, dated 2024).

The test system of assay [1] is HCC-1954 cells. The assay is described as follows: Tumor cell proliferation, CellTiter Glo, HCC1954. Format: cell-based, human. The following applies: HCC-1954, 48-96 h; read-out: Inhibition effects on tumor cell proliferation (IC50). The method, then:
(§1) 1) ErbB2/Her2 low expressing human breast cancer cells MCF-7, MDA-MB-468, ErbB2/Her2 high expressing human breast cancer cells BT-474, SK-BR-3, HCC1954, human ovarian cancer cells SK-OV-3, human gastric cancer cell NCI-N87 was seeded into a 96-well plate at 100 μl/well (containing 1000 to 10000 cells), and incubated in a cell culture incubator overnight (37° C., 5% CO2, 95% air, 100% humidity).
(§2) 3) The cell plate was removed from the incubator, equilibrated for about 30 minutes to room temperature. Each well was added 100 μl CellTiter Glo reagent, shocked in an oscillator for 2 min, then left stand for 10 min at room temperature in dark, the relative light units (RLU) is measured with a BioTech Gen5 microplate reader.

The subject of assay [2] is NCI-N87 cells. In words: Tumor cell proliferation, CellTiter Glo, NCI-N87. As to conditions: NCI-N87, 48-96 h; read-out: Inhibition effects on tumor cell proliferation (IC50). In kind it is cell-based, human. The protocol: as §1, §2
On the technique in general: Cellular ATP, detected with luciferase, serves as a proxy for viable cell number.

The test system of assay [3] is SK-BR-3 cells. In words: Tumor cell proliferation, CellTiter Glo, SK-BR-3. In kind it is cell-based, human. The following applies: SK-BR-3, 48-96 h; read-out: Inhibition effects on tumor cell proliferation (IC50). The method, then:
as §1, §2

Assay [4] has as its system cells with low ErbB2/Her2 expression (MCF-7, MDA-MB-468). The assay is described as follows: Tumor cell proliferation, cells with low ErbB2/Her2 expression. Format: cell-based, human. The following applies: 0.005-30 nM. The protocol:
as §1, §2

For assay [5], the system named is BT-474 cells. In words: Tumor cell proliferation, CellTiter Glo, BT-474. In kind it is cell-based, human. As to conditions: BT-474, 48-96 h; read-out: Inhibition effects on tumor cell proliferation (IC50). The method, then:
as §1, §2

Assay [6] deals with MDA-MB-468 cells. The assay is described as follows: Tumor cell proliferation, CellTiter Glo, MDA-MB-468. In kind it is cell-based, human. As to conditions: MDA-MB-468, 48-96 h; read-out: Inhibition effects on tumor cell proliferation (IC50). The protocol:
as §1, §2

In assay [7] the test system is MCF-7 cells. In words: Tumor cell proliferation, CellTiter Glo, MCF-7. In kind it is cell-based, human. As to conditions: MCF-7, 48-96 h; read-out: Inhibition effects on tumor cell proliferation (IC50). The method, then:
as §1, §2

Assay [8] has as its system SK-OV-3 cells. The assay is described as follows: Tumor cell proliferation, CellTiter Glo, SK-OV-3. The following applies: SK-OV-3, 48-96 h; read-out: Inhibition effects on tumor cell proliferation (IC50). In kind it is cell-based, human. The method, then:
as §1, §2

The subject of assay [9] is cells with high ErbB2/Her2 expression (BT-474, SK-BR-3, HCC1954, SK-OV-3, NCI-N87). In words: Tumor cell proliferation, cells with high ErbB2/Her2 expression. Format: cell-based, human. The following applies: 0.005-30 nM. The method, then: as §1, §2
Assay [10] has as its system HCC1954 xenograft. The assay is described as follows: HCC1954 xenograft in nude mice. In kind it is in vivo, BALB/c nude mouse. The following applies: 5 mg/kg. The method, then: The in vivo anti-tumor effect of the candidate ADC was determined using xenograft model of nude mice after administration of the candidate ADC.
1) HCC1954 breast cancer cells in the logarithmic growth phase were collected and adjusted with matrigel buffer (PBS: BD Matrigel=1:1) to a cell density of 2.5×10^7/ml. 0.2 ml of this prepared HCC1954 cell suspension was injected subcutaneously to the right scapula of each BALB/c nude mouse (6 to 8 week-old, SPF grade, female).
2) 7 days after cell inoculation, the diameter of the tumor was measured by caliper and the tumor volume was calculated according to the Formula: V=0.5a×b^2 (a is the longest diameter of the tumor, b is the shortest diameter of the tumor). […] Administration was via the tail vein injection, and the control group received an equal volume of the vehicle. […] The tumor volumes at each time point were calculated and compared between groups. At the same time, the T-C or T/C value was used as the index to evaluate the anti-tumor activity of each drug. T-C value is calculated as the follows: T is the average time (Days) when the average tumor volume of each treatment group reaches a preset size (500 mm^3), C is the average time (Day) when the average tumor volume of the controlled group reaches the preset size (500 mm^3). While T/C (percentage) is the index for tumor inhibition effect, T is the average tumor volume of all the drug treatment groups at a fixed time point, and C is the average tumor volume of the control group at the fixed time point.

As for `COc1cc2cc(c1Cl)N(C)C(=O)C[C@H](OC(=O)[C@H](C)N(C)C(=O)CCS)[C@]1(C)O[C@H]1[C@H](C)[C@@H]1C[C@@](O)(NC(=O)O1)[C@H](OC)/C=C/C=C(\C)C2` [DM1], the IC50 stood at 2.9 nM in assay [1]; 7.18 nM in [2]; 1.92 nM in assay [3]; 16.3 nM in assay [5]; 4.22 nM in assay [6]; 5.71 nM in assay [7]. Further, in assay [8], the IC50 was found to be 1.59 nM. Besides, the “inhibition effect on proliferation (in words)” value in assay [4] and in [9] was “significant inhibition effect” each time.

In the case of ado-trastuzumab emtansine [Kadcyla], the IC50 in assay [1] worked out at 0.049 nM; in [2] it was 0.031 nM; in assay [3] it was 0.03 nM; in assay [5], 0.144 nM; in assay [8], 0.049 nM. The “inhibition effect on proliferation (in words)” value in assay [4] is “only inhibits the proliferation of cells with low ErbB2/Her2 expression at high concentrations”. Moreover, the “inhibition on ErbB2/Her2 positive breast cancer (in words)” value in [10] is reported as “significant inhibition”. The “tumor volumes compared with control group” value in assay [10] (10 days after administration) is “significantly smaller than control group”. Besides, the “Tumor Size at day 31 (Mean ± SEM)” value in assay [10] (single tail vein injection, n=10) was determined as 29 ± 4 mm^3. Also, the tumor regrowth result in assay [10] (until 38 days after the administration) was “No sign of tumor regrowth”. In addition, the “T-C at 500 mm^3” value in assay [10] (time to reach 500 mm^3, treated minus control) is given as greater than 17 days. Also, the T/C (as a rule, the result in the treated group divided by that in the control group, in per cent) in assay [10] (treated / control average tumor volume) is reported as 1.3%.
